Patent US6906094B2, “1,2,4-tribsubstituted benzenes as inhibitors of 15-lipoxygenase” (Warner-Lambert Company, priority 2000, dated 2005)
pIC50: −log10 of the molar value.

How the values were obtained:
human 15-LO = target: T1, human 15-LO (Homo sapiens, UniProt P16050); assay: Human Lysate 15-LO Assay (HUM15LO); assay type: biochemical; settings: recombinant human 15-LO, 174 μM linoleic acid, 15 minutes at 4° C., 13-HODE quantitated
T1 construct: made in house; host or cells: Sf9 insect cells (baculovirus, Bac-to-Bac)
T1 sequence (P16050 1-662): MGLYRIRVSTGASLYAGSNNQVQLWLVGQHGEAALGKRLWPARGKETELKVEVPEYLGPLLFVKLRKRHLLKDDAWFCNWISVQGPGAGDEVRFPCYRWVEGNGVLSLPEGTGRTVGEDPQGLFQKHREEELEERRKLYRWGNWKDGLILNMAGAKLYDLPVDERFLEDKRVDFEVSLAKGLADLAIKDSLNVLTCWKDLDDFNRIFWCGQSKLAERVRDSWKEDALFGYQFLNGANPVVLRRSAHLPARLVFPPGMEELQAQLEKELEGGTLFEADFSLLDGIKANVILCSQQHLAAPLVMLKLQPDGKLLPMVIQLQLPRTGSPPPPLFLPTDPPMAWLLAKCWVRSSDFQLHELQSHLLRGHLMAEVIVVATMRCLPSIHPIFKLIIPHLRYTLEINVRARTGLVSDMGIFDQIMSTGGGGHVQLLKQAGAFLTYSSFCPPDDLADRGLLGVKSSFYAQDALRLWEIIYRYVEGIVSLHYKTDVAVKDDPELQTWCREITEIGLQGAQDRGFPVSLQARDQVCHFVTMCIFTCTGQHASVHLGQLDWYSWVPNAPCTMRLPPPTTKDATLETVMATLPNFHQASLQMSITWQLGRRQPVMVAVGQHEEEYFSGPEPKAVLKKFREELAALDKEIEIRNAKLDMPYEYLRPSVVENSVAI
Description: In the HUM15LO assay, a test compound of the present invention was incubated with 15-LO enzyme in the presence of the linoleic acid substrate. For example, a known amount of a test compound of the present invention, 100 μL of human 15-LO, and 174 μM linoleic acid in PBS containing 0.2% sodium cholate were incubated for 15 minutes at 4° C. The reaction was stopped with 100 μL of mobile phase and 10 μL of triethyl phosphite. […] 13-HODE was quantitated by comparing peak areas of individual samples with those from a standard curve generated using authentic 13-HODE. The test reaction is compared to a control reaction, which is identical to the test reaction except no test compound of the present invention is present Percent inhibition is calculated as the amount of 13-HODE produced by the test reaction divided by the amount of 13-HODE produced by the control reaction, expressed as a percent.
Human 15-LO was generated in a recombinant 15-lipoxygenase bacculovirus expression system, using Gibco/BRL/Life Technologies' Bac-to-Bac expression reagents; T4 DNA ligase, Kanamycin, Gentamicin, tetracycline, penicillin, streptomycin, Bluo-gal, IPTG, DH10Bac competent cells, SOC, LB medium, Sf-900 II SFM media, Sf9 insect cells, Cell Fectin, and EcoRI, BamHI and KpnI restriction enzymes.

[1] = target: T2, rabbit reticulocyte 15-LO (Oryctolagus cuniculus, UniProt P12530); assay: Rabbit Reticulocyte 15-LO Assay (H15LO); assay type: biochemical; settings: 2 U rabbit reticulocyte 15-LO, 174 μM linoleic acid, 15 minutes at 4° C., 13-HODE quantitated
T2 construct: 15-LO is obtained from phenylhydrazine-treated rabbits and purified according to the method of Rapoport; from tissue; host or cells: reticulocytes of phenylhydrazine-treated rabbits
T2 sequence (P12530 1-663): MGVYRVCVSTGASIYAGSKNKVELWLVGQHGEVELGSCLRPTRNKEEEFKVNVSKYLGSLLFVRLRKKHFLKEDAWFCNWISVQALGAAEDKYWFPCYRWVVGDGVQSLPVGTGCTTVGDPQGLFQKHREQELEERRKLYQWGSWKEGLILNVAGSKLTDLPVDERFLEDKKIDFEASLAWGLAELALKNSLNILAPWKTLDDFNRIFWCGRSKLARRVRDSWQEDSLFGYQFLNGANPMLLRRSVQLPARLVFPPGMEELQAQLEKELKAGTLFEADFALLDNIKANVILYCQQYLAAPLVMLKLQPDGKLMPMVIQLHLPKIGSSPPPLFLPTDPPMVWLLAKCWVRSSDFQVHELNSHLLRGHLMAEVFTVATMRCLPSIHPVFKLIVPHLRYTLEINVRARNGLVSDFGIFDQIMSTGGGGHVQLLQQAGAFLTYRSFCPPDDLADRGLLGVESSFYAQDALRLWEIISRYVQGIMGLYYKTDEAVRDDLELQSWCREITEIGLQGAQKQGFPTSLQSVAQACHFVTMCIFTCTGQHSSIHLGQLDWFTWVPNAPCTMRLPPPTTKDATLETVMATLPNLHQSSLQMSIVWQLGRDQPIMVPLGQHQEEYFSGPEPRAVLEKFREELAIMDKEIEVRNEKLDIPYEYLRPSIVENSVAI
Description: In the H15LO assay, a test compound was incubated with 15-LO enzyme in the presence of the linoleic acid substrate. For example, 2 units (U) of rabbit reticulocyte 15-LO and 174 μM linoleic acid were incubated with a known amount of a test compound of the present invention for 15 minutes at 4° C. The total reaction volume was 100 μL in phosphate buffer saline (PBS) containing 0.2% sodium cholate. The reaction was stopped with 100 μL of mobile phase and […] of triethyl phosphite. […] 13-HODE was quantitated by comparing peak areas of individual samples with those from a standard curve generated using authentic 13-HODE.
15-LO is obtained from phenylhydrazine-treated rabbits and purified according to the method of Rapoport (Rapoport et al., European Journal of Biochemistry, 1979;96:545-561).

SMILES	melting point	pIC50 (human 15-LO)	pIC50 [1]
COc1ccc(-c2cc3cc(F)c(F)cc3[nH]2)cc1NS(=O)(=O)NC(=O)OCCOC(C)C (hydrate or solvate) [Example 34, Carbamic Acid, [[[5-(5,6-difluoro-IH-indol-2-yl)-2-methoxyphenyl]amino]-sulfonyl]-2(1-methylethoxy)ethyl Ester]	158 to 163 °C	–	–
COc1ccc(C(=O)Nc2ccc(F)c(F)c2)cc1NS(=O)(=O)NC(=O)OCCCc1ccncc1 (hydrate or solvate) [Example 39, Carbamic Acid, [[[5-[[(3,4-difluorophenyl)amino]carbonyl]-2-methoxyphenyl]amino]sulfonyl]-, 3-(4-pyridinyl)propyl ester]	160 to 164 °C	–	–
COc1ccc(-c2cc3cc(F)c(F)cc3[nH]2)cc1NS(=O)(=O)NC(=O)OCCc1ccccc1 (hydrate or solvate) [Example 40, Carbamic Acid, [[[5-(5,6-difluoro-IH-indol-2-yl)-2-methoxyphenyl]amino]-sulfonyl]-2-phenylethyl ester]	180 to 182 °C	–	–
COc1ccc(C(=O)Nc2ccc(F)c(F)c2)cc1NS(=O)(=O)NC(=O)OCCc1ccccc1 (hydrate or solvate) [Example 41]	173 to 177 °C	–	–
CCCCOC(=O)NS(=O)(=O)Nc1cc(-c2cc3cc(F)c(F)cc3[nH]2)ccc1OC [Example 21, Carbamic Acid, [[[5-(5,6-difluoro-IH-indol-2-yl)-2-methoxyphenyl]amino]-sulfonyl]-, Butyl Ester]	–	7.85	8.05
COc1ccc(-c2cc3cc(F)c(F)cc3[nH]2)cc1NS(=O)(=O)NC(=O)OCC(C)C [Example 22, Carbamic Acid, [[[5-(5,6-difluoro-IH-indol-2-yl)-2-methoxyphenyl]amino]-sulfonyl]-, 2-methylpropyl ester]	–	7.60	7.60
COc1ccc(-c2cc3cc(F)c(F)cc3[nH]2)cc1NS(=O)(=O)NC(=O)Nc1cc(Cl)cc(Cl)c1 [Example 24]	–	7.48	7.96
CCOC(=O)NS(=O)(=O)Nc1cc(-c2cc3cc(F)c(F)cc3[nH]2)ccc1OC [Example 25, Carbamic Acid, [[[5-(5,6-difluoro-1H-indol-2-yl)-2-methoxyphenyl]amino]-sulfonyl]-, ethyl ester]	–	7.47	7.82
COc1ccc(-c2cc3cc(F)c(F)cc3[nH]2)cc1NS(=O)(=O)NC(=O)Nc1ccc(Cl)cc1 [Example 27, Urea, N-(4-chlor phenyl)-N′-[[[5-(5,6-difluoro-IH-indol-2-yl)-2-methoxyphenyl]amino]sulfonyl]]	–	7.36	7.64
COc1ccc(-c2cc3cc(F)c(F)cc3[nH]2)cc1NS(=O)(=O)NC(=O)Nc1ccc(C)cc1 [Example 28, Urea, N-[[[5-(5,6-difluoro-IH-indol-2-yl)-2-methoxyphenyl]amino]sulfonyl]-N′-(4-methylphenyl)]	–	7.74	7.41
COC(=O)NS(=O)(=O)Nc1cc(-c2cc3cc(F)c(F)cc3[nH]2)ccc1OC [Example 29, Carbamic Acid, [[[5-(5,6-difluoro-IH-indol-2-yl)-2-methoxyphenyl]amino]-sulfonyl]-methyl ester]	–	7.07	7.33
COc1ccc(-c2cc3cc(F)c(F)cc3[nH]2)cc1NS(=O)(=O)NC(=O)OCCOC(C)C [Example 34, Carbamic Acid, [[[5-(5,6-difluoro-IH-indol-2-yl)-2-methoxyphenyl]amino]-sulfonyl]-2(1-methylethoxy)ethyl Ester]	–	7.52	7.59
CNS(=O)(=O)Nc1cc(-c2cc3cc(F)c(F)cc3[nH]2)ccc1OC [Example 37, Sulfamide, N-[5-(5,6-diflouo-IH-indo-2-yl)-2-methoxyphenyl]-N′-methyl]	–	8.15	8.30
CNS(=O)(=O)Nc1cc(C(=O)Nc2ccc(F)c(F)c2)ccc1OC [Example 38, Benzamide, N-(3,4-difluorophenyl)-4-methoxy-3-[[(methylamino)-sulfonyl]amino]]	–	7.89	7.89
COc1ccc(-c2cc3cc(F)c(F)cc3[nH]2)cc1NS(=O)(=O)NC(=O)OCCc1ccccc1 [Example 40, Carbamic Acid, [[[5-(5,6-difluoro-IH-indol-2-yl)-2-methoxyphenyl]amino]-sulfonyl]-2-phenylethyl ester]	–	7.82	8.15
COc1ccc(C(=O)Nc2ccc(F)c(F)c2)cc1NS(=O)(=O)NC(=O)OCCc1ccccc1 [Example 41]	–	7.16	7.89
COC(=O)COC(=O)NS(=O)(=O)Nc1cc(-c2cc3cc(F)c(F)cc3[nH]2)ccc1OC [Example 43, Acetic Acid, [[[[[[5-(5,6-difluoro-1H-indol-2-yl)-2-methoxyphenyl]amino]-sulfonyl]amino]carbonyl]oxy]-, Methyl ester]	–	7.52	7.77
COc1ccc(-c2cc3cc(F)c(F)cc3[nH]2)cc1NS(=O)(=O)NC(=O)OCCCO [Example 45, Carbamic acid, [[[5-(5,6-difluoro-IH-indol-2-yl)-2-methoxyphenyl]amino]-sulfonyl]-3-hydroxypropyl ester]	–	6.88	7.10
COc1ccc(C(=O)Nc2ccc(F)c(F)c2)cc1NS(=O)(=O)NC(=O)Nc1ccc(C(C)(C)C)cc1 [Example 59, Benzamide, N-(3,4-difluorophenyl)-3-[[[[[[4-(1,1-dimethylethyl)phenyl]-amino]carbonyl]amino]sulfonyl]amino]-4-methoxy]	–	7.62	7.89
COc1ccc(C(=O)Nc2ccc(F)c(F)c2)cc1NS(=O)(=O)NC(=O)Nc1ccc(C(=O)O)cc1 [Example 65, Benzoic Acid, 4-[[[[[[5-[[(3,4-difluorophenyl)amino]carbonyl]-2-methoxyphenyl]amino]sulfonyl]amino]carbonyl]amino]]	–	6.56	7.52
COc1ccc(NC(=O)NS(=O)(=O)Nc2cc(C(=O)Nc3ccc(F)c(F)c3)ccc2OC)cc1 [Example 66, Benzamide, N-(3,4-difluorophenyl)-4-methoxy-3-[[[[[(4-methoxyphenyl)-amino]carbonyl]amino]sulfonyl]amino]]	–	6.65	7.29
